Source: patent publication US20170190671A1, “BIS(ARYL)CATECHOL DERIVATIVES AS HERBICIDES” (E I DU PONT DE NEMOURS AND COMPANY, priority 2014, published 2017)

Tests used:
Type in all cases: in vivo
kochia (Kochia scoparia) [1] = assay: Test A postemergence; settings: Bassia scoparia, post-emergence, 240 h, 0 to 100 scale, read-out: Plant response rating, Kochia; for pest or weed control at 31 g/ha: 31 g ai/ha; for pest or weed control at 125 g/ha: 125 g ai/ha
Procedure, shortened: (§1)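 Injury scores run from 0, no effect, to 100, complete control, judged by eye against untreated plants roughly 10 days after treatment. Chemicals carried a surfactant in a non-phytotoxic solvent and went onto loam–sand soil preemergence or onto one- to two-leaf seedlings postemergence.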

[2] = system: Italian ryegrass (Lolium multiflorum); assay: Test A postemergence; settings: Lolium multiflorum, post-emergence, 240 h, 0 to 100 scale, read-out: Plant response rating, Ryegrass, Italian; for pest or weed control at 31 g/ha: 31 g ai/ha; for pest or weed control at 125 g/ha: 125 g ai/ha
Procedure, shortened: as §1

[3] = system: barnyardgrass (Echinochloa crus-galli); assay: Test A postemergence; settings: Echinochloa crus-galli, post-emergence, 240 h, 0 to 100 scale, read-out: Plant response rating, Barnyardgrass; for pest or weed control at 31 g/ha: 31 g ai/ha; for pest or weed control at 125 g/ha: 125 g ai/ha
Procedure, shortened: as §1

corn (Zea mays) = assay: Test A postemergence; settings: Zea mays, post-emergence, 240 h, 0 to 100 scale; for Corn plant response rating (crop injury, 0 = no effect, 100 = complete kill) at 31 g/ha: 31 g ai/ha; for Corn plant response rating (crop injury, 0 = no effect, 100 = complete kill) at 125 g/ha: 125 g ai/ha
Procedure, shortened: as §1

[4] = system: blackgrass (Alopecurus myosuroides); assay: Test A postemergence; settings: Alopecurus myosuroides, post-emergence, 240 h, 0 to 100 scale, read-out: Plant response rating, Blackgrass; for pest or weed control at 31 g/ha: 31 g ai/ha; for pest or weed control at 125 g/ha: 125 g ai/ha
Procedure, shortened: as §1

[5] = system: ragweed (common ragweed, Ambrosia elatior); assay: Test A postemergence; settings: Ambrosia artemisiifolia, post-emergence, 240 h, 0 to 100 scale, read-out: Plant response rating, Ragweed; for pest or weed control at 31 g/ha: 31 g ai/ha; for pest or weed control at 125 g/ha: 125 g ai/ha
Procedure, shortened: as §1

[6] = system: pigweed (Amaranthus retroflexus); assay: Test A postemergence; settings: Amaranthus retroflexus, post-emergence, 240 h, 0 to 100 scale, read-out: Plant response rating, Pigweed; for pest or weed control at 31 g/ha: 31 g ai/ha; for pest or weed control at 125 g/ha: 125 g ai/ha
Procedure, shortened: as §1

[7] = system: giant foxtail (Setaria faberii); assay: Test A postemergence; settings: Setaria faberi, post-emergence, 240 h, 0 to 100 scale, read-out: Plant response rating, Foxtail, Giant; for pest or weed control at 31 g/ha: 31 g ai/ha; for pest or weed control at 125 g/ha: 125 g ai/ha
Procedure, shortened: as §1

[8] = system: galium (catchweed bedstraw, Galium aparine); assay: Test A postemergence; settings: Galium, post-emergence, 240 h, 0 to 100 scale, read-out: Plant response rating, Galium; for pest or weed control at 31 g/ha: 31 g ai/ha; for pest or weed control at 125 g/ha: 125 g ai/ha
Procedure, shortened: as §1

[9] = system: wheat (Triticum aestivum); assay: Test A postemergence; settings: Triticum aestivum, post-emergence, 240 h, 0 to 100 scale, read-out: Plant response rating, Wheat; for plant injury at 31 g/ha: 31 g ai/ha; for plant injury at 125 g/ha: 125 g ai/ha
Procedure, shortened: as §1

[10] = system: ducksalad (Heteranthera limosa); assay: Test B flooded paddy; settings: Heteranthera limosa, 336 h; 250 g ai/ha, Flood, 13 to 15 days, scale 0 (no effect) to 100 (complete control); read-out: Plant response rating, Ducksalad
Procedure, shortened: (§2)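 Under a constant 3 cm flood, test compounds went directly into the paddy water. Following 13 to 15 days of greenhouse growth, treated species and controls were compared by eye.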

[11] = system: barnyardgrass (Echinochloa crus-galli); assay: Test B flooded paddy; settings: Echinochloa crus-galli, 336 h; 250 g ai/ha, Flood, 13 to 15 days, scale 0 (no effect) to 100 (complete control); read-out: Plant response rating, Barnyardgrass
Procedure, shortened: as §2

[12] = system: sedge, umbrella (small-flower umbrella sedge, Cyperus difformis); assay: Test B flooded paddy; settings: Cyperus difformis, 336 h; 250 g ai/ha, Flood, 13 to 15 days, scale 0 (no effect) to 100 (complete control); read-out: Plant response rating, Sedge, Umbrella
Procedure, shortened: as §2

rice (Oryza sativa) = assay: Test B flooded paddy; settings: Oryza sativa, 336 h; 250 g ai/ha, Flood, 13 to 15 days, scale 0 (no effect) to 100 (complete control); read-out: Plant response rating, Rice
Procedure, shortened: as §2

kochia (Kochia scoparia) [13] = assay: Test A preemergence; settings: Bassia scoparia, pre-emergence, 240 h, 0 to 100 scale (0 no effect, 100 complete control), read-out: Kochia plant response rating; for pest or weed control at 31 g/ha: 31 g ai/ha; for pest or weed control at 125 g/ha: 125 g ai/ha
Procedure, shortened: as §1

[14] = system: Italian ryegrass (Lolium multiflorum); assay: Test A preemergence; settings: Lolium multiflorum, pre-emergence, 240 h, 0 to 100 scale (0 no effect, 100 complete control), read-out: Ryegrass, Italian plant response rating; for pest or weed control at 31 g/ha: 31 g ai/ha; for pest or weed control at 125 g/ha: 125 g ai/ha
Procedure, shortened: as §1

[15] = system: barnyardgrass (Echinochloa crus-galli); assay: Test A preemergence; settings: Echinochloa crus-galli, pre-emergence, 240 h, 0 to 100 scale (0 no effect, 100 complete control), read-out: Barnyardgrass plant response rating; for pest or weed control at 31 g/ha: 31 g ai/ha; for pest or weed control at 125 g/ha: 125 g ai/ha
Procedure, shortened: as §1

[16] = system: ragweed (common ragweed, Ambrosia elatior); assay: Test A preemergence; settings: Ambrosia artemisiifolia, pre-emergence, 240 h, 0 to 100 scale (0 no effect, 100 complete control), read-out: Ragweed plant response rating; for pest or weed control at 31 g/ha: 31 g ai/ha; for pest or weed control at 125 g/ha: 125 g ai/ha
Procedure, shortened: as §1

[17] = system: pigweed (Amaranthus retroflexus); assay: Test A preemergence; settings: Amaranthus retroflexus, pre-emergence, 240 h, 0 to 100 scale (0 no effect, 100 complete control), read-out: Pigweed plant response rating; for pest or weed control at 31 g/ha: 31 g ai/ha; for pest or weed control at 125 g/ha: 125 g ai/ha
Procedure, shortened: as §1

[18] = system: giant foxtail (Setaria faberii); assay: Test A preemergence; settings: Setaria faberi, pre-emergence, 240 h, 0 to 100 scale (0 no effect, 100 complete control), read-out: Foxtail, Giant plant response rating; for pest or weed control at 31 g/ha: 31 g ai/ha; for pest or weed control at 125 g/ha: 125 g ai/ha
Procedure, shortened: as §1

Row | Compound | pest or weed control at 31 g/ha (kochia (Kochia scoparia) [1]) | pest or weed control at 125 g/ha (kochia (Kochia scoparia) [1]) | pest or weed control at 31 g/ha [2] | pest or weed control at 125 g/ha [2] | pest or weed control at 31 g/ha [3] | pest or weed control at 125 g/ha [3] | Corn plant response rating (crop injury, 0 = no effect, 100 = complete kill) at 31 g/ha (corn (Zea mays)) | Corn plant response rating (crop injury, 0 = no effect, 100 = complete kill) at 125 g/ha (corn (Zea mays)) | pest or weed control at 31 g/ha [4] | pest or weed control at 125 g/ha [4] | pest or weed control at 31 g/ha [5] | pest or weed control at 125 g/ha [5] | pest or weed control at 31 g/ha [6] | pest or weed control at 125 g/ha [6] | pest or weed control at 31 g/ha [7] | pest or weed control at 125 g/ha [7] | pest or weed control at 31 g/ha [8] | pest or weed control at 125 g/ha [8] | plant injury at 31 g/ha [9] | plant injury at 125 g/ha [9] | other results
1 | N#Cc1cccc(Oc2ncc(Cl)cn2)c1Oc1cccc(Cl)c1 [Compound 37] | 0% | 0% | 0% | 0% | 0% | 0% | 0% | 0% | 0% | 0% | 0% | 0% | 0% | 0% | 0% | 0% | 0% | 0% | 0% | 0% | pest or weed control at 250 g/ha [10]: 0%; pest or weed control at 250 g/ha [11]: 0%; pest or weed control at 250 g/ha [12]: 0%; plant injury at 250 g/ha (rice (Oryza sativa)): 0%; pest or weed control at 31 g/ha (kochia (Kochia scoparia) [13]): 0%; pest or weed control at 125 g/ha (kochia (Kochia scoparia) [13]): 0%; pest or weed control at 31 g/ha [14]: 0%; pest or weed control at 125 g/ha [14]: 0%; pest or weed control at 31 g/ha [15]: 0%; pest or weed control at 125 g/ha [15]: 0%; pest or weed control at 31 g/ha [16]: 0%; pest or weed control at 125 g/ha [16]: 0%; pest or weed control at 31 g/ha [17]: 0%; pest or weed control at 125 g/ha [17]: 0%; pest or weed control at 31 g/ha [18]: 0%; pest or weed control at 125 g/ha [18]: 0%
2 | N#Cc1cccc(Oc2ncc(Cl)cn2)c1Oc1ccccc1Cl [Compound 40] | 0% | 0% | 0% | 0% | 0% | 0% | 0% | 0% | 0% | 0% | 0% | 0% | 0% | 30% | 0% | 0% | 0% | 10% | 0% | 0% | pest or weed control at 250 g/ha [10]: 0%; pest or weed control at 250 g/ha [11]: 0%; pest or weed control at 250 g/ha [12]: 0%; plant injury at 250 g/ha (rice (Oryza sativa)): 0%; pest or weed control at 31 g/ha (kochia (Kochia scoparia) [13]): 0%; pest or weed control at 125 g/ha (kochia (Kochia scoparia) [13]): 0%; pest or weed control at 31 g/ha [14]: 0%; pest or weed control at 125 g/ha [14]: 0%; pest or weed control at 31 g/ha [15]: 0%; pest or weed control at 125 g/ha [15]: 0%; pest or weed control at 31 g/ha [16]: 0%; pest or weed control at 125 g/ha [16]: 0%; pest or weed control at 31 g/ha [17]: 0%; pest or weed control at 125 g/ha [17]: 0%; pest or weed control at 31 g/ha [18]: 0%; pest or weed control at 125 g/ha [18]: 0%
3 | FC(F)c1cccc(Oc2ncc(Br)cn2)c1Oc1ncc(Cl)cn1 [Compound 41] | 50% | 90% | 30% | 60% | 40% | 80% | 10% | 50% | 40% | 80% | 30% | 50% | 100% | 100% | 30% | 90% | 60% | 80% | 0% | 20% | pest or weed control at 250 g/ha [10]: 30%; pest or weed control at 250 g/ha [11]: 0%; pest or weed control at 250 g/ha [12]: 40%; plant injury at 250 g/ha (rice (Oryza sativa)): 0%; pest or weed control at 31 g/ha (kochia (Kochia scoparia) [13]): 70%; pest or weed control at 125 g/ha (kochia (Kochia scoparia) [13]): 100%; pest or weed control at 31 g/ha [14]: 0%; pest or weed control at 125 g/ha [14]: 30%; pest or weed control at 31 g/ha [15]: 20%; pest or weed control at 125 g/ha [15]: 80%; pest or weed control at 31 g/ha [16]: 0%; pest or weed control at 125 g/ha [16]: 60%; pest or weed control at 31 g/ha [17]: 100%; pest or weed control at 125 g/ha [17]: 100%; pest or weed control at 31 g/ha [18]: 100%; pest or weed control at 125 g/ha [18]: 100%
